Measured values taken from US20090131444A1 (published 2009).
Structures can show the parent of a compound that is named as a salt.

Row | SMILES | melting point
1 | COc1ccc2nccc(NC(=O)[C@@H]3CC[C@@H](NCc4cc5c(cn4)OCCO5)CO3)c2n1 (as salt: hydrochloride) | > 230 °C (dec.)
2 | COc1ccc2ncc(Cl)c(OC[C@@H]3CC[C@@H](NCc4cc5c(cn4)OCCO5)CO3)c2c1 (as salt: hydrochloride) | 191 °C
3 | COc1ccc2ncc(Cl)c(NC(=O)[C@@H]3CC[C@@H](NCc4cc5c(cn4)OCCO5)CO3)c2c1 (as salt: hydrochloride) | 220 °C
